Laboratory results: publication PMC4591937 (Science translational medicine, 2015)
Values after ≈ are worked out from the molar mass of the structure shown.

Assays:
lipid peroxidation [1] = test: Inhibition of lipid peroxidation, ferric thiocyanate; format: biochemical; settings: average ± SEM, n = 3
lipid peroxidation [2] = test: Inhibition of lipid peroxidation, thiobarbituric acid reactive substances; format: biochemical; settings: average ± SEM, n = 3
[3] = Binding to human plasma proteins by rapid equilibrium dialysis; format: in vitro ADME
[4] = system: ERE-luciferase reporter under transcriptional control of ERs; test: Bioluminescence imaging in OVX repTOP ERE-Luc mice; format: in vivo, mouse; settings: DHED s.c. or p.o. ≥200 μg/kg; E2 s.c. 20 μg/kg
uterus of OVX rodents = format: in vivo; settings: for Vaginal smear cytology during and after treatment: OVX rats
ERα in MCF-7Ca cells = test: ERα transactivation in MCF-7Ca breast cancer cells; format: cell-based, human; settings: cultured MCF-7Ca cells, 1 nM
CD1 mice = test: Forced swim test; format: in vivo, mouse
OVX rat brain = test: Markers of estrogenic effects in the brain; format: in vivo; settings: for Progesterone receptor (PR) expression in the preoptic area of the hypothalamus: OVX Sprague-Dawley rats, DHED s.c. 50 μg/kg, ICI 182,780 s.c. 1 mg/kg 1 h before DHED
ERα = molecular target: T1, ERα (Homo sapiens, UniProt P03372); test: Estrogen receptor; format: binding
T1 sequence (P03372 1-595): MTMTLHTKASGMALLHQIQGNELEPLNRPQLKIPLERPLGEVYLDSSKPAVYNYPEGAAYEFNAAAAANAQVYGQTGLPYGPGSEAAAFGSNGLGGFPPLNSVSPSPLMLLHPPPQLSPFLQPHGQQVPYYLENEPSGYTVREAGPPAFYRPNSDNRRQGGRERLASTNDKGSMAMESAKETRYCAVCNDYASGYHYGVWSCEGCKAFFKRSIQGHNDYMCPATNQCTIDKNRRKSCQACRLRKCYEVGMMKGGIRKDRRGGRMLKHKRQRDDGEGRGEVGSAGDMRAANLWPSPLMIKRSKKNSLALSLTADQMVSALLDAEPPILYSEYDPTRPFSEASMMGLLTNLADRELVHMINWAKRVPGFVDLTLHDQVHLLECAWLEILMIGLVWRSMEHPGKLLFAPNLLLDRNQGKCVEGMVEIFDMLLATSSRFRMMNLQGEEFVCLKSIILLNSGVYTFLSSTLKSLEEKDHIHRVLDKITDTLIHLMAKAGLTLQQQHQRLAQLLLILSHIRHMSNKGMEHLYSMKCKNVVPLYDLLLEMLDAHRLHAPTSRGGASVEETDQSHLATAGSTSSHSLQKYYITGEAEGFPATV

ERβ = ERβ (Homo sapiens, UniProt Q92731); test: Estrogen receptor; format: binding
ERβ, sequence (Q92731 whole entry, species assumed): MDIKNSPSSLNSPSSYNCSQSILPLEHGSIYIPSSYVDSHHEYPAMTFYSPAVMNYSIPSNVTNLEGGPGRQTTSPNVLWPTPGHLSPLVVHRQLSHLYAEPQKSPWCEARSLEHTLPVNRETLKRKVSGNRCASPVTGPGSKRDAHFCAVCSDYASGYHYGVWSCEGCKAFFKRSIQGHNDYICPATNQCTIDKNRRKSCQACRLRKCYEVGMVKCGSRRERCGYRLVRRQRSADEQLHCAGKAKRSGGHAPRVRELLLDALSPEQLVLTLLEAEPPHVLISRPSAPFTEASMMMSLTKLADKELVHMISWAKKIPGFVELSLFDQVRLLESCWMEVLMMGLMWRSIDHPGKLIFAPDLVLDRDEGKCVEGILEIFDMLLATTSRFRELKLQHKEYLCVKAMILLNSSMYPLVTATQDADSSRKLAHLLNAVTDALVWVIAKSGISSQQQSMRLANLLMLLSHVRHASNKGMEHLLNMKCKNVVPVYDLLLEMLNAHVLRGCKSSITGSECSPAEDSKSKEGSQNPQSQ

[5] = Drug distribution / pharmacokinetics in OVX rats; format: in vivo, rat
OVX Sprague-Dawley rats = test: Transient middle cerebral artery occlusion; format: in vivo, rat
OVX rat = OVX rat hot flush model; format: in vivo; settings: p.o. 30 μg/kg
[6] = system: middle-aged OVX Fisher-344 rats; test: Delay match-to-sample plus maze test; format: in vivo, rat; settings: continuous s.c. minipump 4 μg daily, 48 days, versus control
human MCF7-Ca xenografts = test: MCF-7Ca xenograft growth in nude mice; format: in vivo, mouse; settings: 100 μg/kg s.c. daily for 8 weeks
[7] = 0.8 to 100 μg/kg s.c. 1 h before tMCAO

C[C@]12CC[C@@H]3c4ccc(O)cc4CC[C@H]3[C@@H]1CC[C@@H]2O [Compound E2, 17β-estradiol, reference compound]
IC50 (lipid peroxidation [1]; read-out: Inhibition of lipid peroxidation: IC50, FTC): 11.8 ± 1.6 µM | IC50 (lipid peroxidation [2]; read-out: Inhibition of lipid peroxidation: IC50, TBARS): 3.9 ± 0.4 µM | Binding to human plasma proteins ([3]; average ± SEM, n = 3): 97.8 ± 0.3% | ERE reporter activation / bioluminescence in peripheral tissues [4]: significant increase of photon emission from the hepatic area | Vaginal smear cytology during and after treatment (uterus of OVX rodents): vaginal smears with many cornified cells | ERα transactivation (ERα in MCF-7Ca cells): induced the expected cancer-promoting ERα transactivation

C[C@]12CC[C@@H]3c4ccc(O)cc4C[C@@H](CCCCCCCCC[S+]([O-])CCCC(F)(F)C(F)(F)F)[C@H]3[C@@H]1CC[C@@H]2O (stereo partly shown) [ICI 182,780]
Effect of ER antagonist on antidepressant-like effect of E2 and DHED (CD1 mice; 4 mg/kg s.c. co-injected with E2 or DHED 50 μg/kg s.c., 5 days): completely blocked this antidepressant-like effect | Brain concentration by LC-MS/MS (CD1 mice; 15 min after completion of the FST, systemic dosing): 6.6 ±0.9 ng/g tissue | Progesterone receptor (PR) expression in the preoptic area of the hypothalamus (OVX rat brain): abolished the effect of DHED treatment on PR induction

C[C@]12CC[C@H]3[C@@H](CCC4=CC(=O)C=C[C@@]43O)[C@@H]1CC[C@@H]2O [DHED, 10β,17β-dihydroxyestra-1,4-dien-3-one]
IC50 (ERα): > 10 µM | IC50 (ERβ): > 10 µM | Inhibition of lipid peroxidation: IC50, FTC (lipid peroxidation [1]): n.i. | Inhibition of lipid peroxidation: IC50, TBARS (lipid peroxidation [2]): n.i. | Binding to human plasma proteins ([3]; human): 58.0 ± 0.6% | Prodrug level in the brain ([5]; OVX rats after systemic dosing): did not detect DHED in the brain | Oral absorption ([5]; PK studies of E2 in brain and serum, p.o. (table S1)): complete absorption after oral administration | half-life ([5]; female, Sprague-Dawley, rat, serum, iv, 200 ug/kg): 5.1 ± 0.6 min | ERE reporter activation / bioluminescence in peripheral tissues [4]: did not activate the ERE reporter construct | Neuroprotection with post-infarct treatment (OVX Sprague-Dawley rats; 100 μg/kg s.c. after tMCAO): had a neuroprotective effect | Infarct volume (OVX Sprague-Dawley rats; [7]): dose-dependent reduction of the infarct volumes | Neurological deficits (ND score) (OVX Sprague-Dawley rats; [7]): attenuation of neurological deficits | Antidepressant-like activity in the FST (CD1 mice; 10 μg/kg s.c. daily for 5 days, 1 h after last injection): outperformed direct administration of E2 | Tail-skin temperature rise (OVX rat): blunted the tail-skin temperature rise | Working memory errors [6]: significantly decreased working memory errors | ChAT-IR stereological cell counts in medial septum and vertical diagonal band (OVX rat brain; OVX Fischer 344 rats, 4 μg/day s.c. pumps, 48 days): increased choline acetyltransferase immunoreactive (ChAT-IR) stereological cell counts | Dendritic spines and spine heads in hippocampal CA1 neurons (OVX rat brain; OVX Fischer 344 rats, 10 μg s.c. every four days for 40 days): increased the number of dendritic spines and spine heads | Progesterone receptor (PR) expression in the preoptic area of the hypothalamus (OVX rat brain): stimulated progesterone receptor (PR) expression | Expression of estrogen-regulated uterine proteins (uterus of OVX rodents; OVX Swiss-Webster mice, 50 μg/kg s.c. daily for 5 days, versus control): no changes in the expression | Vaginal smear cytology during and after treatment (uterus of OVX rodents): remained continuously in diestrus | Wet uterus weight gain (uterotrophic effect) (uterus of OVX rodents; OVX rodents, i.v., s.c., p.o. or 48-day s.c. minipump): did not result in wet uterus weight gain | Growth of aromatase-transfected MCF-7Ca xenografts (human MCF7-Ca xenografts): did not stimulate the growth | solubility (physchem): 60.3 ± 1.7 µg/mL (≈ 209 µM)

C[C@]12CCC(=O)C=C1CC[C@@H]1[C@@H]2CC[C@]2(C)C(=O)CC[C@@H]12 [Δ^4A, Δ^4-androstenedione]
ERα transactivation (ERα in MCF-7Ca cells): induced the expected cancer-promoting ERα transactivation

16,16,17-d3-DHED
Site of labelled E2 formation from deuterated prodrug ([5]; OVX Sprague-Dawley rats, i.v., tissue 15 min post-dosing): d3-E2 was produced exclusively in the brain
